Assay results from the Deep4Chem optical property database.

Test: solvent given as SMILES

CCCCCCc1ccc(-n2c3[n+](c4c5ccccc5c5ccccc5c42)[B-](C)(C)c2ccccc2-3)cc1
absorption maximum (in C1CCOC1): 359 nm
absorption maximum (in CC#N): 359 nm
absorption maximum (in Cc1ccccc1): 361 nm
absorption maximum (in ClCCl): 361 nm

c1ccc(-c2cc(-c3ccc4ccc5c(-c6ccnc(-c7ccccn7)c6)ccc6ccc3c4c65)ccn2)nc1
absorption maximum (in C1CCOC1): 362 nm
absorption maximum (in CC#N): 360 nm
absorption maximum (in CCC#N): 360 nm
absorption maximum (in CCCC#N): 360 nm
absorption maximum (in CCCCCC): 361 nm
absorption maximum (in CCCO): 361 nm
absorption maximum (in CCO): 361 nm
absorption maximum (in CO): 363 nm
absorption maximum (in Cc1ccccc1): 362 nm

N#Cc1nc(N(Cc2ccccc2Br)Cc2ccccc2Br)c(C#N)nc1N(Cc1ccccc1Br)Cc1ccccc1Br
absorption maximum (in ClC(Cl)Cl): 485 nm

Cc1cc(=O)oc2c3c4c(cc12)CCCN4CCC3
absorption maximum (in C1CCCCC1): 361 nm
absorption maximum (in CC#N): 380 nm
absorption maximum (in CCO): 387 nm
absorption maximum (in O): 396 nm

Cc1ccc(-c2cnc3nn4ccccc4c3c2)cc1
absorption maximum (in C1CCOC1): 386 nm

CC(NC(=O)OC(C)(C)C)C(=O)OCc1ccc2c3cccc4cccc(c5cccc1c52)c43 (stereo not drawn)
absorption maximum (in CCO): 437 nm

CC1=c2c3c4cccc5cccc(c=3c(C)[n+]2[B-](F)(F)n2c(C)c3c(c21)-c1cccc2cccc-3c12)c54
absorption maximum (in ClC(Cl)Cl): 657 nm

COCCC1=Cc2nc1ccc1[nH]c(cc1CCOC)c1nc(c(NC(=O)CCCC(=O)OC)cc3[nH]c2cc3CCOC)C(CCOC)=C1
absorption maximum (in Cc1ccccc1): 670 nm

CCCCN1C(=O)c2cc(Oc3ccc(C(C)(C)C)cc3)c3c4c(Oc5ccc(C(C)(C)C)cc5)cc5c6c(cc(Oc7ccc(C(C)(C)C)cc7)c(c7c(Oc8ccc(C(C)(C)C)cc8)cc(c2c37)C1=O)c64)C(=O)N(CCCC)C5=O
absorption maximum (in ClC(Cl)Cl): 582 nm

CC1(C)CC(=O)c2cc(F)c(F)cc2N1
absorption maximum (in CC#N): 369 nm
absorption maximum (in CCO): 381 nm

C[n+]1c2c(c(-c3ccccc3)c3c1CCCC3)CCCC2
absorption maximum (in CCO): 340.03 nm

CC(C)(C)[Si](C)(C)C#Cc1c2c(=O)c3ccccc3c2c(C#C[Si](C)(C)C(C)(C)C)c2c(=O)c3ccccc3c12
absorption maximum (in ClC(Cl)Cl): 526 nm

COc1cc(OC)cc(-c2ccc(C3=CC(c4ccccc4)=C(c4ccccc4)C3)cc2)c1
absorption maximum (in ClCCl): 366 nm

CCCCCOc1cc2oc(=O)c3c4occc4c4ccc5cccc6c(c1)c2c3c4c56
absorption maximum (in C1CCOC1): 422 nm

Oc1cc2ccc3cc(O)cc4ccc(c1)c2c34
absorption maximum (in CO): 381 nm

CCn1c2ccccc2c2cc(-c3cc(-c4ccc5c(c4)c4ccccc4n5CC)nc(OC)n3)ccc21
absorption maximum (in C1CCOC1): 366 nm
absorption maximum (in CCOC(C)=O): 364 nm
absorption maximum (in CN(C)C=O): 369 nm
absorption maximum (in Cc1ccccc1): 365 nm
absorption maximum (in ClCCl): 366 nm

COC(=O)CNC(=O)c1nc2c(N(C)C)nc(N(C)C)nc2n1Cc1ccccc1
absorption maximum (in C1COCCO1): 336 nm
absorption maximum (in CC#N): 336 nm
absorption maximum (in CO): 340 nm
absorption maximum (in ClCCl): 343 nm

CCOC(=O)c1c2c3c(ccc(Cl)c3c3cc4c(cc13)[Si](C)(C)O[Si]4(C)C)N(C)C2=O
absorption maximum (in CC#N): 378 nm

CC(C)=CCN1C(=O)c2cccc3c2c(cc2nc(C)oc23)C1=O
absorption maximum (in CCO): 362 nm

CC1(C)c2ccccc2N(c2ccc(-c3ncc(C#N)cn3)cc2)c2ccccc21
absorption maximum (in Cc1ccccc1): 396 nm

c1cc2c3c(cccc3c1)-c1c-2ccc2ccc3ccccc3c12
absorption maximum (in CCCCCCC): 408 nm

C(=C\c1ncccn1)/c1ccc(-c2ccc(N(c3ccccc3)c3ccccc3)cc2)cc1
absorption maximum (in ClCCl): 373 nm

CC[N+](CC)=c1ccc2cc3c(oc-2c1)-c1ccc(N(C)C)cc1CC3
absorption maximum (in CCO): 612 nm
absorption maximum (in ClCCl): 619 nm
absorption maximum (in O): 604 nm

CC/[NH+]=c1\cc2oc3cc(NCCOC(=O)C(NC(=O)OC(C)(C)C)C(C)C)c4ccccc4c3nc-2cc1C (stereo not drawn)
absorption maximum (in CCO): 590 nm
absorption maximum (in O): 590 nm

Cc1ccc(C#Cc2c3cc4ccccc4cc3c(C#C[Si](C(C)C)(C(C)C)C(C)C)c3cc4ccccc4cc23)cc1
absorption maximum (in ClCCl): 654 nm

CCC1=C(C)C2=C(C)c3cc(I)c(I)n3[B-](F)(F)[N+]2=C1C
absorption maximum (in C1CCCCC1): 532 nm
absorption maximum (in CC(C)=O): 515.5 nm
absorption maximum (in CCO): 520 nm
absorption maximum (in CCOC(C)=O): 518.5 nm
absorption maximum (in CO): 518 nm
absorption maximum (in OCC(F)(F)F): 511.5 nm

N#CC(C#N)=C(/C=C/c1cc2c3c(c1)CCCN3CCC2)c1ccc2c3c(cccc13)CC2
absorption maximum (in C1CCOC1): 527 nm
absorption maximum (in CC#N): 540 nm
absorption maximum (in CC(C)=O): 535 nm
absorption maximum (in CCOC(C)=O): 523 nm
absorption maximum (in CN(C)C=O): 550 nm
absorption maximum (in CO): 541 nm
absorption maximum (in Cc1ccccc1): 526 nm
absorption maximum (in ClC(Cl)Cl): 538 nm

Cc1ccccc1N1c2sc3ccccc3c2Sc2sc3ccccc3c21
absorption maximum (in ClCCl): 325 nm

Cc1ccc2nc3c(nc2c1)c(-c1ccccc1)nn3C
absorption maximum (in C1CCCCC1): 424 nm
absorption maximum (in C1CCOC1): 425 nm
absorption maximum (in CC#N): 423 nm

C(#Cc1ccccc1)C(C#Cc1ccccc1)=Cc1ccc(-c2ccc(C=C(C#Cc3ccccc3)C#Cc3ccccc3)cc2)cc1
absorption maximum (in ClC(Cl)Cl): 394 nm

CCCCCCCCCCCCOc1cc2c3c(ccc4c5c(OC6CCC(C(C)(C)C)CC6)cc6c7c(ccc(c1c34)c75)C(=O)N(C1CCCCC1)C6=O)C(=O)N(C1CCCCC1)C2=O (stereo not drawn)
absorption maximum (in ClC(Cl)Cl): 558 nm

CC(C)(C)c1ccc(N(c2ccc(S(=O)(=O)c3ccc(S(=O)(=O)c4ccc(N(c5ccc(C(C)(C)C)cc5)c5ccccc5C(C)(C)C)cc4)cc3)cc2)c2ccccc2C(C)(C)C)cc1
absorption maximum (in Cc1ccccc1): 351 nm

O=c1cc2cc(O)c3cc(O)cc4ccc(o1)c2c43
absorption maximum (in CC1CCCO1): 476 nm

Fc1ccc(N(c2ccccc2)c2ccc3ccc4c(N(c5ccccc5)c5ccc(F)cc5)ccc5ccc2c3c54)cc1
absorption maximum (in ClCCl): 423 nm

c1cc2ccc3ccc4cc3c2cc1c1ccc2ccc3ccc(cc3c2c1)c1ccc2ccc3ccc4cc3c2c1
absorption maximum (in Cc1ccccc1): 375 nm

O=Cc1ccc(C#CC(C#Cc2ccc(C=O)o2)=Cc2ccc(C=C(C#Cc3ccc(C=O)o3)C#Cc3ccc(C=O)o3)cc2)o1
absorption maximum (in ClC(Cl)Cl): 450 nm

C(=C\c1ccc(/C=C/c2ccc(N(c3ccccc3)c3ccccc3)cc2)c2nsnc12)/c1ccc(N(c2ccccc2)c2ccccc2)cc1
absorption maximum (in C1CCOC1): 512 nm
absorption maximum (in CCOC(C)=O): 502 nm
absorption maximum (in CN(C)C=O): 513 nm
absorption maximum (in Cc1ccccc1): 521 nm
absorption maximum (in ClC(Cl)Cl): 514 nm
absorption maximum (in ClCCl): 512 nm

Cc1ccc(-c2nc(-c3ccccc3O)[nH]c2-c2ccc(C)cc2)cc1
absorption maximum (in CO): 320 nm

c1ccc(N2c3ccc4ccccc4c3-c3c4ccccc4cn[n+]3[B-]2(c2ccccc2)c2ccccc2)cc1
absorption maximum (in Cc1ccccc1): 524 nm

c1ccc(-c2pc3ccccc3s2)cc1 (stereo not drawn)
absorption maximum (in CC#N): 330 nm

Oc1ccc(C2=[N+]3C(=C(c4ccccc4)c4cccn4[B-]3(F)F)C=C2)cc1
absorption maximum (in ClC(Cl)Cl): 541 nm

CN(C)c1ccc2c(c1)-c1ccccc1C2=O
absorption maximum (in C1CCCCC1): 400 nm
absorption maximum (in CC#N): 431 nm
absorption maximum (in CCO): 437 nm
absorption maximum (in c1ccccc1): 420 nm

C(=C\c1nc2ccccc2o1)/c1ccccc1
absorption maximum (in C1CCCCC1): 320 nm
absorption maximum (in CO): 320 nm

CCCCOC(=O)c1cc(Oc2ccc(OC)cc2)c2c3c(Cl)cc4c5c(cc(Cl)c(c6c(Oc7ccc(OC)cc7)cc(C(=O)OCCCC)c1c26)c53)C(=O)N(c1c(C(C)C)cccc1C(C)C)C4=O
absorption maximum (in Cc1ccccc1): 531 nm

O=C1C2=C(O[B-](F)(F)[n+]3c2ccc2ccccc23)c2ccc(N3CCOCC3)c3cccc1c23
absorption maximum (in C1CCOC1): 464 nm
absorption maximum (in CC#N): 468 nm
absorption maximum (in CCO): 460 nm
absorption maximum (in CO): 461 nm
absorption maximum (in ClCCl): 468 nm

COc1ccc(C2=C(c3ccc(OC)cc3)C(C)(C)c3ccc4ccccc4c32)cc1
absorption maximum (in C1CCCCC1): 336 nm

CC(C)[Si](C#Cc1c2nsnc2c(C#C[Si](C(C)C)(C(C)C)C(C)C)c2nc3c4ccccc4c(=O)c4ccccc4c3nc12)(C(C)C)C(C)C
absorption maximum (in ClCCl): 561 nm

CC(C)[Si]1(C(C)C)c2cc(C#N)ccc2-c2ccc(N(C)C)cc21
absorption maximum (in C1CCCCC1): 357 nm
absorption maximum (in CC#N): 360 nm
absorption maximum (in CCO): 360 nm
absorption maximum (in CCOCC): 358 nm
absorption maximum (in CS(C)=O): 375 nm
absorption maximum (in ClCCl): 368 nm
absorption maximum (in c1ccccc1): 360 nm

CC1=CC(C)=[N+]2C1=C(c1ccc(-c3c4ccccc4c(-c4ccccc4)c4ccccc34)cc1)c1c(C)cc(C)n1[B-]2(F)F
absorption maximum (in CC#N): 499 nm
absorption maximum (in CCCCCC): 502 nm
absorption maximum (in CCO): 500 nm
absorption maximum (in CN(C)C=O): 500 nm
absorption maximum (in Cc1ccccc1): 504 nm
absorption maximum (in ClCCl): 502 nm

COc1ccc(-c2ccccc2)cc1
absorption maximum (in C1CCCCC1): 265.82 nm

N#Cc1ccc(/C=C/C(F)(F)F)c(N)c1
absorption maximum (in C1CCOC1): 367 nm

COc1cc(OC)c2c(c1)c1c(c3ccc(C(C)(C)C)cc32)=[N+]2C(=Nc3c(-c4cc(OC)c(OC)c(OC)c4)c4c5cc(OC)cc(OC)c5c5cc(C(C)(C)C)ccc5c4n3[B-]2(F)F)C=1c1cc(OC)c(OC)c(OC)c1
absorption maximum (in Cc1ccccc1): 791 nm

Oc1ccc2ccccc2c1/C=N/CC/N=C/c1c(O)ccc2ccccc12
absorption maximum (in CC#N): 408 nm

Cc1c(C)n2c(COC(=O)c3ccccc3O)c(C)c(=O)n2c1=O
absorption maximum (in CCO): 379 nm

CC(C)(C)c1ccc(-c2c(-c3ccc(-n4c5ccccc5c5ccccc54)cc3)cc(-c3ccc(-n4c5ccccc5c5ccccc54)cc3)c(-c3ccc(C(C)(C)C)cc3)c2-c2ccc(C(C)(C)C)cc2)cc1
absorption maximum (in C1CCOC1): 341 nm

CN(C)c1ccc(C#Cc2cc3ccc4cc(C#Cc5ccc(N(C)C)cc5)cc5ccc(c2)c3c45)cc1
absorption maximum (in Cc1ccccc1): 421 nm

O=P1(c2ccccc2)C(c2ccccc2)=Cc2ccccc21 (stereo not drawn)
absorption maximum (in C1CCOC1): 347 nm
absorption maximum (in ClCCl): 350 nm

Cc1ccc2nc3c4c(c5ccccc5c3nc2c1)OC(=O)CC4c1ccc(C(F)(F)F)cc1 (stereo not drawn)
absorption maximum (in ClC(Cl)Cl): 411 nm

C(#Cc1cccs1)C(C#Cc1cccs1)=Cc1ccc(C=C(C#Cc2cccs2)C#Cc2cccs2)cc1
absorption maximum (in ClC(Cl)Cl): 438 nm
